For this assay, the target named is T1, full length active recombinant SYK enzyme (Homo sapiens, UniProt P43405).
T1 construct: full length active recombinant SYK enzyme (Millipore, Calif.); purchased Millipore
Briefly: Inhibition of Syk tyrosine phosphorylation activity (LANCE TR-FRET kinase assay). It counts as biochemical. The settings on record: activity in the Syk assays, class symbols. A digest of the protocol: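 IC50 was derived by non-linear regression of TR-FRET signal (Eu-W1024-PY100 donor, streptavidin-APC acceptor) read 1 h after EDTA quench. The kinase step ran 1 h at room temperature with 1 nM full-length SYK, 550 nM biotinylated DEEDYESP substrate and 100 μM ATP in Tris pH 7.5/MgCl2/DTT at 3% final DMSO.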
On the technique in general: TR-FRET usually uses a lanthanide donor and a delayed reading to cut background.
Usually IC50 stands for the point on the concentration scale where inhibition reaches its midpoint. In the case of `COc1ccc(Nc2nc(N[C@H](CC3CC3)C(N)=O)cnc2C(N)=O)cc1OC` [Example 171, (R)-5-(1-amino-3-cyclopropyl-1-oxopropan-2-ylamino)-3-(3,4-dimethoxyphenylamino)pyrazine-2-carboxamide], the IC50 was 0.001 to 0.01 µM.

Turning to `Cc1ccc(Nc2nc(N[C@H](CC3CC3)C(N)=O)cnc2C(N)=O)cc1C` [Example 172, (R)-5-(1-amino-3-cyclopropyl-1-oxopropan-2-ylamino)-3-(3,4-dimethylphenylamino)pyrazine-2-carboxamide], the half-maximal inhibitory concentration (IC50) was in the range of 0.001 to 0.01 µM.

In the case of `CC[C@@H](Nc1cnc(C(N)=O)c(Nc2cnn(-c3ccccc3)c2)n1)C(N)=O` [Example 173, (R)-5-(1-amino-1-oxobutan-2-ylamino)-3-(1-phenyl-1H-pyrazol-4-ylamino)pyrazine-2-carboxamide], the half-maximal inhibitory concentration (IC50) was 0.01 to 0.1 µM.

`Cc1ccc(Nc2nc(N[C@H](CC3CC3)C(N)=O)cnc2C(N)=O)cc1` [Example 174, (R)-5-(1-amino-3-cyclopropyl-1-oxopropan-2-ylamino)-3-(p-tolylamino)pyrazine-2-carboxamide]: the half-maximal inhibitory concentration (IC50) was 0.01 to 0.1 µM.

Take `NC(=O)c1ncc(NC2(C(N)=O)CC2)nc1Nc1cnc2ccc(F)cc2c1` [Example 175, 5-(1-carbamoylcyclopropylamino)-3-(6-fluoroquinolin-3-ylamino)pyrazine-2-carboxamide]: the IC50 is 0.001 to 0.01 µM.

Regarding `NC(=O)c1ncc(NC[C@@H](N)CC(F)F)nc1Nc1cccc(-c2ncccn2)c1` [Example 176, (S)-5-(2-amino-4,4-difluorobutylamino)-3-(3-(pyrimidin-2-yl)phenylamino)pyrazine-2-carboxamide], the IC50 is 0.01 to 0.1 µM.

As to `CC[C@@H](Nc1cnc(C(N)=O)c(Nc2cncc(C)c2)n1)C(N)=O` [Example 177, (R)-5-(1-amino-1-oxobutan-2-ylamino)-3-(5-methylpyridin-3-ylamino)pyrazine-2-carboxamide], the 50% inhibitory concentration (IC50) was in the range of 0.01 to 0.1 µM.

On to `CC[C@@H](Nc1cnc(C(N)=O)c(Nc2ccnc(C)c2)n1)C(N)=O` [Example 178, (R)-5-(1-amino-1-oxobutan-2-ylamino)-3-(2-methylpyridin-4-ylamino)pyrazine-2-carboxamide], for which the 50% inhibitory concentration (IC50) fell in the range of 0.01 to 0.1 µM.

With `CC[C@@H](Nc1cnc(C(N)=O)c(Nc2cc(C)nc(C)c2)n1)C(N)=O` [Example 179, (R)-5-(1-amino-1-oxobutan-2-ylamino)-3-(2,6-dimethylpyridin-4-ylamino)pyrazine-2-carboxamide], the IC50 was in the range of 0.01 to 0.1 µM.

For the compound `CC(C)C[C@@H](Nc1cnc(C(N)=O)c(Nc2ccn(C)n2)n1)C(N)=O` [Example 180, (R)-5-(1-amino-4-methyl-1-oxopentan-2-ylamino)-3-(1-methyl-1H-pyrazol-3-ylamino)pyrazine-2-carboxamide], the IC50 was over 1 µM.

For `CC[C@@H](Nc1cnc(C(N)=O)c(Nc2cccnc2)n1)C(N)=O` [Example 181, (R)-5-(1-amino-1-oxobutan-2-ylamino)-3-(pyridin-3-ylamino)pyrazine-2-carboxamide], the IC50 fell in the range of 0.01 to 0.1 µM.

With `CC[C@@H](Nc1cnc(C(N)=O)c(Nc2cncc(F)c2)n1)C(N)=O` [Example 182, (R)-5-(1-amino-1-oxobutan-2-ylamino)-3-(5-fluoropyridin-3-ylamino)pyrazine-2-carboxamide], the half-inhibitory concentration (IC50) is 0.01 to 0.1 µM.

With `Cc1cccc(Nc2nc(N[C@H]3CC[C@@H](N)CC3)cnc2C(N)=O)c1` [Example 183, 5-((1s,4s)-4-aminocyclohexylamino)-3-(m-tolylamino)pyrazine-2-carboxamide], the IC50 was in the range of 0.01 to 0.1 µM.

Regarding `NC(=O)c1ncc(N[C@H]2CC[C@@H](N)CC2)nc1Nc1cccc(-c2ncccn2)c1` [Example 184, 5-((1s,4s)-4-aminocyclohexylamino)-3-(3-(pyrimidin-2-yl)phenylamino)pyrazine-2-carboxamide], the IC50 was 0.001 to 0.01 µM.

`NC(=O)c1ncc(N[C@H]2CC[C@@H](N)CC2)nc1Nc1cnc2ccccc2c1` [Example 185, 5-((1s,4s)-4-aminocyclohexylamino)-3-(quinolin-3-ylamino)pyrazine-2-carboxamide]: the half-inhibitory concentration (IC50) is 0.01 to 0.1 µM.

With `Cn1cc(Nc2nc(N[C@@H]3CCCC[C@@H]3N)cnc2C(N)=O)cn1` [Example 186, 5-((1R,2S)-2-aminocyclohexylamino)-3-(1-methyl-1H-pyrazol-4-ylamino)pyrazine-2-carboxamide], the half-maximal inhibitory concentration (IC50) lay within 0.01 to 0.1 µM.

For `NC(=O)c1ncc(N[C@H]2CC[C@@H](N)CC2)nc1Nc1ccc2ncccc2c1` [Example 187, 5-((1s,4s)-4-aminocyclohexylamino)-3-(quinolin-6-ylamino)pyrazine-2-carboxamide], the IC50 lay within 0.001 to 0.01 µM.

On to `NC(=O)c1ncc(NC2CCC(N)CC2)nc1Nc1cccc(-n2nccn2)c1` (centres unmarked) [Example 188, 3-(3-(2H-1,2,3-triazol-2-yl)phenylamino)-5-((1r,4r)-4-aminocyclohexylamino)pyrazine-2-carboxamide], for which the IC50 lay in the range of 0.001 to 0.01 µM.

Consider `CC(C)[C@@H](Nc1cnc(C(N)=O)c(Nc2ccc3cnccc3c2)n1)C(N)=O` [Example 189, (R)-5-(1-amino-3-methyl-1-oxobutan-2-ylamino)-3-(isoquinolin-6-ylamino)pyrazine-2-carboxamide], for which the IC50 was 0.001 to 0.01 µM.

With `NC(=O)c1ncc(N[C@@H](C(N)=O)C2CC2)nc1Nc1ccc2cnccc2c1` [Example 190, (R)-5-(2-amino-1-cyclopropyl-2-oxoethylamino)-3-(isoquinolin-6-ylamino)pyrazine-2-carboxamide], the IC50 is 0.001 to 0.01 µM.

For `CC(C)(C)[C@@H](Nc1cnc(C(N)=O)c(Nc2cnc3ccccc3c2)n1)C(N)=O` [Example 191, (R)-5-(1-amino-3,3-dimethyl-1-oxobutan-2-ylamino)-3-(quinolin-3-ylamino)pyrazine-2-carboxamide], the concentration for half-maximal inhibition (IC50) lay within 0.001 to 0.01 µM.

Regarding `CC(C)(C)[C@@H](Nc1cnc(C(N)=O)c(Nc2ccc3ncccc3c2)n1)C(N)=O` [Example 192, (R)-5-(1-amino-3,3-dimethyl-1-oxobutan-2-ylamino)-3-(quinolin-6-ylamino)pyrazine-2-carboxamide], the IC50 was 0.001 to 0.01 µM.

On to `CC(C)[C@@H](Nc1cnc(C(N)=O)c(Nc2cnc3cccnc3c2)n1)C(N)=O` [Example 193, (R)-3-(1,5-naphthyridin-3-ylamino)-5-(1-amino-3-methyl-1-oxobutan-2-ylamino)pyrazine-2-carboxamide], for which the half-inhibitory concentration (IC50) is 0.01 to 0.1 µM.

Take `CC(C)[C@@H](Nc1cnc(C(N)=O)c(Nc2cnc3ccncc3c2)n1)C(N)=O` [Example 194, (R)-3-(1,6-naphthyridin-3-ylamino)-5-(1-amino-3-methyl-1-oxobutan-2-ylamino)pyrazine-2-carboxamide]: the IC50 is 0.001 to 0.01 µM.

Take `CC(C)[C@@H](Nc1cnc(C(N)=O)c(Nc2ccc3ccncc3c2)n1)C(N)=O` [Example 195, (R)-5-(1-amino-3-methyl-1-oxobutan-2-ylamino)-3-(isoquinolin-7-ylamino)pyrazine-2-carboxamide]: the IC50 lay in the range of 0.001 to 0.01 µM.

As for `CC(C)C[C@@H](Nc1cnc(C(N)=O)c(Nc2cncc(C(F)(F)F)c2)n1)C(N)=O` [Example 196, (R)-5-(1-amino-4-methyl-1-oxopentan-2-ylamino)-3-(5-(trifluoromethyl)pyridin-3-ylamino)pyrazine-2-carboxamide], the concentration for half-maximal inhibition (IC50) fell in the range of 0.01 to 0.1 µM.

Regarding `NC(=O)c1ncc(N[C@@H]2CCCC[C@@H]2N)nc1Nc1cncc(C(F)(F)F)c1` [Example 197, 5-((1R,2S)-2-aminocyclohexylamino)-3-(5-(trifluoromethyl)pyridin-3-ylamino)pyrazine-2-carboxamide], the IC50 lay in the range of 0.001 to 0.01 µM.

For `NC(=O)c1ncc(N[C@@H]2CCCC[C@@H]2N)nc1Nc1cnc2ccc(F)cc2c1` [Example 198, 5-((1R,2S)-2-aminocyclohexylamino)-3-(6-fluoroquinolin-3-ylamino)pyrazine-2-carboxamide], the half-maximal inhibitory concentration (IC50) lay in the range of 0.001 to 0.01 µM.

As for `NC(=O)c1ncc(N[C@@H]2CCCC[C@@H]2N)nc1Nc1cccc(C(F)(F)F)c1` [Example 199, 5-((1R,2S)-2-aminocyclohexylamino)-3-(3-(trifluoromethyl)phenylamino)pyrazine-2-carboxamide], the IC50 lay within 0.001 to 0.01 µM.

Turning to `CC(C)[C@@H](Nc1cnc(C(N)=O)c(Nc2cnc3ccc(F)cc3c2)n1)C(N)=O` [Example 200, (R)-5-(1-amino-3-methyl-1-oxobutan-2-ylamino)-3-(6-fluoroquinolin-3-ylamino)pyrazine-2-carboxamide], the half-inhibitory concentration (IC50) is 0.001 to 0.01 µM.

Take `NC(=O)c1ncc(N[C@@H]2CCCC[C@@H]2N)nc1Nc1cnc2cc(F)ccc2c1` [Example 201, 5-((1R,2S)-2-aminocyclohexylamino)-3-(7-fluoroquinolin-3-ylamino)pyrazine-2-carboxamide]: the IC50 was 0.001 to 0.01 µM.

Turning to `NC(=O)c1ncc(N[C@@H]2CCCC[C@@H]2N)nc1Nc1cnc2c(F)cccc2c1` [Example 202, 5-((1R,2S)-2-aminocyclohexylamino)-3-(8-fluoroquinolin-3-ylamino)pyrazine-2-carboxamide], the IC50 lay in the range of 0.001 to 0.01 µM.

As for `CC(C)[C@@H](Nc1cnc(C(N)=O)c(Nc2cnc3cc(F)ccc3c2)n1)C(N)=O` [Example 203, (R)-5-(1-amino-3-methyl-1-oxobutan-2-ylamino)-3-(7-fluoroquinolin-3-ylamino)pyrazine-2-carboxamide], the IC50 lay within 0.001 to 0.01 µM.

`CC(C)[C@@H](Nc1cnc(C(N)=O)c(Nc2cnc3c(F)cccc3c2)n1)C(N)=O` [Example 204, (R)-5-(1-amino-3-methyl-1-oxobutan-2-ylamino)-3-(8-fluoroquinolin-3-ylamino)pyrazine-2-carboxamide]: the IC50 was in the range of 0.001 to 0.01 µM.

On to `NC(=O)c1ncc(N[C@@H]2CCCC[C@@H]2N)nc1Nc1cc(F)c2ncccc2c1` [Example 205, 5-((1R,2S)-2-aminocyclohexylamino)-3-(8-fluoroquinolin-6-ylamino)pyrazine-2-carboxamide], for which the concentration for half-maximal inhibition (IC50) was under 0.001 µM.

Source of the values: patent US9359308B2, “Pyrazine kinase inhibitors” (Portola Pharmaceuticals, Inc., priority 2011, dated 2016).
